Experimental data taken from patent publication US20110028686A1, “Protein binding miniature proteins” (Yale University, priority 2000, published 2011).
Like-named read-outs stand apart in the source and are kept apart here. One block for each molecule: values may come before it. Square brackets hold non-standard residues; d marks the D form. Peptide text beside a SMILES is read from it. * marks the point of attachment. Fluorescein(5-NHCOCH2) = O=C(C*)Nc1ccc2c(c1)C(=O)OC21c2ccc(O)cc2Oc2cc(O)ccc21; pS = N[C@@H](COP(=O)(O)O)C(=O)O

Experiments:
[1] = system: hsCRE24 (CRE half-site DNA, ATGAC); experiment: Electrophoretic mobility shift assay, binding to hsCRE24 DNA; settings: for DNA binding: EMSA
Method: Miniature protein-binding to DNA was measured using an electrophoretic mobility shift assay performed in a Model SE600 Dual-Controller Vertical Slab Unit (Hoefer) using 14×16 cm gel plates. Temperature was controlled using a constant temperature bath. Reactions were performed in a binding buffer composed of 137 mM NaCl, 2.7 mM KCl, 4.3 mM Na2HPO4, 1.4 mM NaH2PO4 (pH 7.4), 1 mM EDTA, 0.1% NP-40, 0.4 mg/ml BSA (non-acetylated) and 5% glycerol. For experiments involving the bZIP peptide C/EBP152, the binding buffer was supplemented with 2 mM dithiothreitol. Serial peptide dilutions were performed as 1:1 dilutions with binding buffer. In general, 0.002 ml of gamma ^32P-labeled, double-stranded DNA (CRE24, hsCRE24, C/EBP24 or hsCEBP24; final concentration ≦50 pM in binding buffer; final concentration ≦5 pM for peptides with Kapp <500 pM) in binding buffer were added to 0.008 ml of a serial peptide dilution on ice. Peptide-DNA mixtures were incubated for thirty minutes on ice and then applied to a pre-equilibrated, native polyacrylamide gel (8% acrylamide:bisacrylamide) prepared in 10 mM Tris buffer (pH. 8.1). Gels were allowed to run 0.75 to 1.5 hours at 500 V and were dried on a Model SE1160 Drygel Sr. gel dryer (Hoefer). The gels were analyzed using a Storm 840 Phosphorimager (Molecular Dynamics). Amounts of free and bound DNA were quantified and analyzed using the program KaleidaGraph 3.0 (Synergy Software). Dissociation constants were determined by fitting the data to the Langmuir equation=c[(1+(Kapp/peptideT^n))^−1] where n=1 for PPEBP^SR and EBP^SR and n=2 for C/EBP152. In these equations, theta=cpm in protein-DNA complex/(cpm in protein-DNA complex+cpm free DNA); peptideT=the total peptide concentration and c is an adjustable parameter representing the maximum value of theta (c ≦1; for many peptides c was defined as 1). Values reported represent the average of at least three independent trials ±the standard error. Error bars on the plots represent the standard error for each data point.

[2] = target: T1, HisKIX (His-tagged CBP KIX domain) (Mus musculus, UniProt P45481); experiment: Equilibrium fluorescence polarization, HisKIX binding; settings: for Kd: 25° C.
T1 construct: The CBP KIX-coding region (residues 586 to 672) of pGEX-KT KIX 10-672; made in house; host or cells: E. coli BL21(DE3) pArg
T1 sequence (P45481 586-672): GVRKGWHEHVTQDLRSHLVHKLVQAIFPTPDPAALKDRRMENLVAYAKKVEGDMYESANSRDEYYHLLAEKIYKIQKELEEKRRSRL

[3] = 4° C., read-out: affinity (Kd) for hsCRE
[4] = fluorescein-labeled unphosphorylated peptide, read-out: Kd HisKIX, unphosphorylated peptide (U)
[5] = physiological ionic strength, read-out: equilibrium dissociation constant (Kd) of binding to hsCRE
[6] = label shows phosphorylated (P) or unphosphorylated (U) form, read-out: Kd HisKIX

Molecule: DPAALKRARNTEAARRSRARKLQRMQC [G27, reference compound]
stability of hsCRE24 complex lower than that of PPBR4^SR-hsCRE24 complex [1]: 3.1 kcal/mol | Kd [1, 3]: 410 ± 53 nM | DNA binding at 25° C. [1]: Neither PPBR4 nor G27 showed evidence of DNA binding

Molecule: CC[C@H](C)[C@H](NC(=O)[C@H](Cc1ccc(O)cc1)NC(=O)[C@H](Cc1ccccc1)NC(=O)[C@H](Cc1ccccc1)NC(=O)[C@H](COP(=O)(O)O)NC(=O)[C@H](CC(C)C)NC(=O)[C@H](CCCNC(=N)N)NC(=O)[C@H](CCCNC(=N)N)NC(=O)[C@@H](NC(=O)[C@@H]1CCCN1C(=O)[C@H](C)NC(=O)[C@H](CC(=O)O)NC(=O)[C@H](CC(=O)O)NC(=O)CNC(=O)[C@H](Cc1c[nH]cn1)NC(=O)[C@H](Cc1ccc(O)cc1)NC(=O)[C@@H](NC(=O)[C@@H]1CCCN1C(=O)[C@H](Cc1c[nH]c2ccccc12)NC(=O)[C@H](CO)NC(=O)[C@H](CC(C)C)NC(=O)CN)[C@@H](C)O)C(C)C)C(=O)N[C@@H](CC(C)C)C(=O)N[C@@H](CC(C)C)C(=O)N[C@@H](CC(=O)O)C(=O)N[C@@H](CC(C)C)C(=O)N[C@@H](Cc1ccc(O)cc1)C(=O)N[C@@H](CC(C)C)C(=O)N[C@@H](CC(=O)O)C(=O)N[C@@H](C)C(=O)N1CCC[C@H]1C(=O)NCC(=O)N[C@H](C(=O)N[C@@H](CSCC(=O)Nc1ccc2c(c1)C(=O)OC21c2ccc(O)cc2Oc2cc(O)ccc21)C(N)=O)C(C)C [PPKID5]
Kd ([2]; fluorescein-labeled phosphopeptide, read-out: Kd HisKIX, phosphorylated peptide (P)): 534 ± 31 nM | Kd [2, 4]: 6600 ± 2000 nM

Molecule: PPBR11^SR: polyproline helix-basic region peptide, SEQ ID NO: 10 (GPSQPTYPGDDAPVEDLKRFRNTLAARLSRLRKAARAAA; Pancreatic polypeptide basic region PPBR11)
DNA binding [1]: No significant DNA binding was detected

Molecule: PPBR10^SR: polyproline helix-basic region peptide, SEQ ID NO: 9 (GPSQPTYPGDDAPVEDLKRFRNTLAAYLSRLRKAARAAA; Pancreatic polypeptide basic region PPBR10)
DNA binding [1]: No significant DNA binding was detected

Molecule: GPSQPTYPGDDAPVEDLKRFRNTLAARRSRARKAARAAA [PPBR4^SR]
delta, delta-G, hsCRE24 in preference to hsCEBP24 [1]: -4.4 kcal/mol | ratio of protein concentrations required to bind one-half of the two DNA [1]: 2600 | delta, delta-G of discrimination against mutations at the 5′ terminus of hsCRE ([1]; 4° C.): -1.7 kcal/mol | Kd [1, 3]: 1.9 ± 0.2 nM | DNA binding at 25° C. [1]: Neither PPBR4 nor G27 showed evidence of DNA binding | specificity ratio Krel, hsCRE24 in preference to hsCEBP24 ([1]; Krel (Kd(hsCRE)/Kd(hsCEPB))): 2600 | formation of the hsCRE24 complex in presence of competitor DNA ([1]; high concentrations of poly (dIdC)-(dIdC) or a scrambled CRE site (NON)): unaffected | Kd [1, 5]: 1.5 nM

Molecule: GPSQPTYPGDDAPVEDLKRFRNTLAARRSRARKLQRMKQ [PPBR2^SR]
Kd [1, 5]: 5 nM

Molecule: PPBRO^SR: polyproline helix-basic region peptide, SEQ ID NO: 8, lacking DNA-contact residue(s) (GPSQPTYPGDDAPVEDLKRFRNTLAAYLSVVRKLQRMKQ; Pancreatic polypeptide basic region PPBR0)
DNA binding [1]: No significant DNA binding was detected

The next lines start with the values.

fold higher HisKIX affinity than KID-B^P [2]: greater than 20 fold | ΔΔG of CBP KIX binding compared to KID-B of the same phosphorylation state ([2]; listed as peptide C^P): -1.8 kcal/mol | ΔΔG of CBP KIX binding compared to KID-B of the same phosphorylation state ([2]; listed as peptide C^U): > -1.5 kcal/mol
Molecule: CC[C@H](C)[C@H](NC(=O)[C@H](Cc1ccc(O)cc1)NC(=O)[C@H](Cc1ccccc1)NC(=O)[C@H](Cc1ccccc1)NC(=O)[C@H](COP(=O)(O)O)NC(=O)[C@H](CC(C)C)NC(=O)[C@H](CCCNC(=N)N)NC(=O)[C@@H](N)CCCNC(=N)N)C(=O)N[C@@H](CC(C)C)C(=O)N[C@@H](CC(C)C)C(=O)N[C@@H](CC(=O)O)C(=O)N[C@@H](CC(C)C)C(=O)N[C@@H](Cc1ccc(O)cc1)C(=O)N[C@@H](CC(C)C)C(=O)N[C@@H](CC(=O)O)C(=O)N[C@@H](C)C(=O)N1CCC[C@H]1C(=O)NCC(=O)N[C@H](C(=O)N[C@@H](CSCC(=O)Nc1ccc2c(c1)C(=O)OC21c2ccc(O)cc2Oc2cc(O)ccc21)C(N)=O)C(C)C [Peptide C, reference compound] (H-RRL[pS]FFYILLDLYLDAPGVC(Fluorescein(5-NHCOCH2))-NH2)

Kd [2, 4]: 10900 ± 2000 nM
Molecule: CC[C@H](C)[C@H](NC(=O)CN)C(=O)N[C@@H](CO)C(=O)N[C@@H](Cc1c[nH]c2ccccc12)C(=O)N1CCC[C@H]1C(=O)N[C@H](C(=O)N[C@@H](Cc1ccccc1)C(=O)N[C@@H](CCC(=O)O)C(=O)NCC(=O)N[C@@H](CC(=O)O)C(=O)N[C@@H](CC(=O)O)C(=O)N[C@@H](C)C(=O)N1CCC[C@H]1C(=O)N[C@H](C(=O)N[C@@H](CCCNC(=N)N)C(=O)N[C@@H](CCCNC(=N)N)C(=O)N[C@@H](CC(C)C)C(=O)N[C@@H](CCC(=O)O)C(=O)N[C@@H](Cc1ccccc1)C(=O)N[C@@H](Cc1ccccc1)C(=O)N[C@@H](Cc1ccc(O)cc1)C(=O)N[C@H](C(=O)N[C@@H](CC(C)C)C(=O)N[C@@H](CC(C)C)C(=O)N[C@@H](CC(=O)O)C(=O)N[C@@H](CC(C)C)C(=O)N[C@@H](Cc1ccc(O)cc1)C(=O)N[C@@H](CC(C)C)C(=O)N[C@@H](CC(=O)O)C(=O)N[C@@H](C)C(=O)N1CCC[C@H]1C(=O)NCC(=O)N[C@H](C(=O)N[C@@H](CSCC(=O)Nc1ccc2c(c1)C(=O)OC21c2ccc(O)cc2Oc2cc(O)ccc21)C(N)=O)C(C)C)[C@@H](C)CC)C(C)C)[C@@H](C)O [PPKID6 S18E] (H-GISWPTFEGDDAPVRRLEFFYILLDLYLDAPGVC(Fluorescein(5-NHCOCH2))-NH2)

Kd [2, 4]: 3100 ± 500 nM | Kd [2, 6]: 1500 to 3100 nM
Molecule: CC[C@H](C)[C@H](NC(=O)[C@H](Cc1ccc(O)cc1)NC(=O)[C@H](Cc1ccccc1)NC(=O)[C@H](Cc1ccccc1)NC(=O)[C@H](CO)NC(=O)[C@H](CC(C)C)NC(=O)[C@H](CCCNC(=N)N)NC(=O)[C@H](CCCNC(=N)N)NC(=O)[C@@H](NC(=O)[C@@H]1CCCN1C(=O)[C@H](C)NC(=O)[C@H](CC(=O)O)NC(=O)[C@H](CC(=O)O)NC(=O)CNC(=O)[C@@H]1CCCN1C(=O)[C@H](CC(=O)O)NC(=O)[C@@H](NC(=O)[C@H](CCCCN)NC(=O)[C@H](Cc1c[nH]c2ccccc12)NC(=O)[C@H](CO)NC(=O)[C@H](CC(C)C)NC(=O)CN)[C@@H](C)O)C(C)C)C(=O)N[C@@H](CC(C)C)C(=O)N[C@@H](CC(C)C)C(=O)N[C@@H](CC(=O)O)C(=O)N[C@@H](CC(C)C)C(=O)N[C@@H](Cc1ccc(O)cc1)C(=O)N[C@@H](CC(C)C)C(=O)N[C@@H](CC(=O)O)C(=O)N[C@@H](C)C(=O)N1CCC[C@H]1C(=O)NCC(=O)N[C@H](C(=O)N[C@@H](CSCC(=O)Nc1ccc2c(c1)C(=O)OC21c2ccc(O)cc2Oc2cc(O)ccc21)C(N)=O)C(C)C [PPKID8] (H-GLSWKTDPGDDAPVRRLSFFYILLDLYLDAPGVC(Fluorescein(5-NHCOCH2))-NH2)

Kd [2, 4]: 2300 ± 200 nM | Kd [2, 6]: 1500 to 3100 nM
Molecule: CC[C@H](C)[C@H](NC(=O)[C@H](Cc1ccc(O)cc1)NC(=O)[C@H](Cc1ccccc1)NC(=O)[C@H](Cc1ccccc1)NC(=O)[C@H](CO)NC(=O)[C@H](CC(C)C)NC(=O)[C@H](CCCNC(=N)N)NC(=O)[C@H](CCCNC(=N)N)NC(=O)[C@@H](NC(=O)[C@@H]1CCCN1C(=O)[C@H](C)NC(=O)[C@H](CC(=O)O)NC(=O)[C@H](CC(=O)O)NC(=O)CNC(=O)[C@H](Cc1c[nH]c2ccccc12)NC(=O)[C@H](CCC(=O)O)NC(=O)[C@@H](NC(=O)[C@H](Cc1ccc(O)cc1)NC(=O)[C@@H]1CCCN1C(=O)[C@H](CO)NC(=O)[C@H](CC(C)C)NC(=O)CN)[C@@H](C)O)C(C)C)C(=O)N[C@@H](CC(C)C)C(=O)N[C@@H](CC(C)C)C(=O)N[C@@H](CC(=O)O)C(=O)N[C@@H](CC(C)C)C(=O)N[C@@H](Cc1ccc(O)cc1)C(=O)N[C@@H](CC(C)C)C(=O)N[C@@H](CC(=O)O)C(=O)N[C@@H](C)C(=O)N1CCC[C@H]1C(=O)NCC(=O)N[C@H](C(=O)N[C@@H](CSCC(=O)Nc1ccc2c(c1)C(=O)OC21c2ccc(O)cc2Oc2cc(O)ccc21)C(N)=O)C(C)C [PPKID7] (H-GLSPYTEWGDDAPVRRLSFFYILLDLYLDAPGVC(Fluorescein(5-NHCOCH2))-NH2)
